Structures can show the parent of a compound that is named as a salt.
Assays:
[1] = system: rats with postsurgical pain (plantar incision); assay: Opioid sparing: morphine in VEH- or IMT504-pre-treated rats with plantar incision, mechanical withdrawal threshold; type: in vivo, rat; settings: for effect on withdrawal thresholds: VEH-pre-treated injured rats, 6 h and 1 day after injury
Procedure: In all experiments, the oligodeoxynucleotide (ODN) IMT504, with sequence 5′-[…]-3′ (SEQ ID No 1) was used. The HPLC-grade phosphorothioate ODN (Biosynthesis Inc., Lewisville, Tex., USA) was suspended in sterile saline solution (VEH, 0.9% NaCl; 20 mg/ml; storage concentration) and assayed for LPS contamination. Working concentration doses (6 mg/kg) were obtained by additional dissolving in sterile VEH. The ODN was administered subcutaneously, at a final volume of 200-300 μl, depending on animal weight.
Experiments addressing the opioid sparing effects of IMT504 included the subcutaneous (s.c.) injection of morphine hydrochloride trihydrate (Neocalmans, 10 mg/ml, Soubeiran Chobet, Buenos Aires, Argentina) at three different concentrations (1, 3 or 10 mg/kg, dissolved in sterile distilled water).
The rat hind paw plantar incision model of postoperative pain was used as previously described [Brennan, T. J., E. P. Vandermeulen, and G. F. Gebhart, Characterization of a rat model of incisional pain. Pain, 1996. 64(3): p. 493-501. Briefly, rats were anesthetized using isoflurane (5% induction, 2.5% maintenance, 0.8 l/min O2 flow rate; Piramal Healthcare, UK) and the plantar aspect of the right hind paw was disinfected with povidone iodine. A 1.0-cm longitudinal incision was made 0.5 cm from the end of the heel. The underlying flexor muscle was also incised longitudinally, allowing the muscle origin and insertion to remain intact. After hemostasis by gentle pressure, the skin was closed with sutures of 5-0 nylon.
Rats were divided into injured rats receiving IMT504 (6 mg/kg, dissolved in VEH) or VEH alone, 48h and 24 h prior to surgery. These groups were further subdivided into: 1) Rats followed during 3 days after the injury (n=6 per group), for assessment of pain-like behavior after the co-administration of morphine dissolved in injectable water (vehicle) at different doses, 6 and 24 h after injury; 2) Rats followed during 3 days after the injury (n=6 per group), for assessment of pain-like behavior after the co-administration of injectable water (vehicle) alone, 6 and 24 h after injury; 3) Rats followed during 21 days (n=8), for analysis of the administration of naloxone, 3 days after injury.
Mechanical withdrawal thresholds were assessed by using von Frey nylon monofilaments of different bending forces (1.4, 2, 6, 8, 10, 15 and 26 g; Stoelting Inc., Wooddale, USA) and the modified up-down method of Dixon, as described by Chaplan and cols. (Chaplan, S. R., et al., Quantitative assessment of tactile allodynia in the rat paw. J Neurosci Methods, 1994. 53(1): p. 55-63) , to establish the 50% withdrawal threshold. Results were obtained using the formula: 50% g threshold=[…], where Xf=value (in log units) of the final von Frey hair used; k=tabular value for the pattern of positive/negative responses; and […] difference (in log units) between stimuli. Mechanical withdrawal thresholds were tested 48 h before surgery (basal responses), and 6 h, 1, 3, 7, 14 and 21 days after injury.
A dose-response experiment to evaluate the effect of the s.c. administration of morphine at different doses (10, 3 and 1 mg/kg), 6 h or 1 day after injury, in VEH- or IMT504-treated rats (time-points were chosen based on the fact that a certain degree of mechanical withdrawal threshold alterations was still present in IMT504-treated rats was done, which allowed to test if within this therapeutic window, it was possible to fully revert pain-like behavior using smaller morphine doses). […]

[2] = system: rats with postsurgical pain (plantar incision); assay: Naloxone challenge in IMT504-pre-treated rats with plantar incision, mechanical withdrawal threshold; type: in vivo, rat; settings: IMT504-treated injured rats; naloxone 2 mg/kg i.p. on day 3 after injury
Procedure: In all experiments, the oligodeoxynucleotide (ODN) IMT504, with sequence 5′-[sequence]-3′ (SEQ ID No 1) was used. The HPLC-grade phosphorothioate ODN (Biosynthesis Inc., Lewisville, Tex., USA) was suspended in sterile saline solution (VEH, 0.9% NaCl; 20 mg/ml; storage concentration) and assayed for LPS contamination. Working concentration doses (6 mg/kg) were obtained by additional dissolving in sterile VEH. The ODN was administered subcutaneously, at a final volume of 200-300 μl, depending on animal weight.
A group of rats also received an intraperitoneal (i.p.) injection of naloxone hydrochloride (Narxona 0.4 mg/ml; Scott-Cassara, Bs. As., Argentina), at a dose of 2 mg/kg, in order to test if the effect of IMT504 could be blocked by the pan-opioid receptor antagonist.
The rat hind paw plantar incision model of postoperative pain was used as previously described [Brennan, T. J., E. P. Vandermeulen, and G. F. Gebhart, Characterization of a rat model of incisional pain. […] Briefly, rats were anesthetized using isoflurane (5% induction, 2.5% maintenance, 0.8 l/min O2 flow rate; Piramal Healthcare, UK) and the plantar aspect of the right hind paw was disinfected with povidone iodine. A 1.0-cm longitudinal incision was made 0.5 cm from the end of the heel. The underlying flexor muscle was also incised longitudinally, allowing the muscle origin and insertion to remain intact. After hemostasis by gentle pressure, the skin was closed with sutures of 5-0 nylon.
Rats were divided into injured rats receiving IMT504 (6 mg/kg, dissolved in VEH) or VEH alone, 48h and 24 h prior to surgery. […]
Mechanical withdrawal thresholds were assessed by using von Frey nylon monofilaments of different bending forces (1.4, 2, 6, 8, 10, 15 and 26 g; Stoelting Inc., Wooddale, USA) and the modified up-down method of Dixon, as described by Chaplan and cols. (Chaplan, S. R., et al., Quantitative assessment of tactile allodynia in the rat paw. J Neurosci Methods, 1994. 53(1): p. 55-63) , to establish the 50% withdrawal threshold. […]

SMILES | time after injection free of pain-like behavior ([1]; VEH rats receiving 10 mg morphine) | time after administration with fully reversed pain-like behavior ([1]; VEH rats receiving 1 or 3 mg morphine, both time-points) | effect on withdrawal thresholds ([1]; morphine 10 mg/kg s.c.) | effect on withdrawal thresholds ([1]; morphine 3 and 1 mg/kg s.c.) | withdrawal threshold 15 and 30 min after naloxone [2]
CN1CC[C@]23c4c5ccc(O)c4O[C@H]2[C@@H](O)C=C[C@H]3[C@H]1C5.Cl.O.O.O [morphine, morphine hydrochloride trihydrate, reference compound] | 90 to 180 min | 60 min | very effective in increasing withdrawal thresholds | milder and comparable effects | –
C=CCN1CC[C@]23c4c5ccc(O)c4O[C@H]2C(=O)CC[C@@]3(O)[C@H]1C5 [naloxone, naloxone hydrochloride, reference compound] | – | – | – | – | drastic and significant decrease in their withdrawal threshold
